# Measurements reported in ChEMBL document CHEMBL1135344, “Synthesis and antiviral/antiproliferative activity of some N-sulphonylbenzimidazoles” (Bioorg Med Chem Lett, 2002).
# How the values were obtained:
# HEL [1] = assay: Cytotoxic concentration reducing HEL cell growth by 50%.; assay type: functional; details: Homo sapiens
# Human alphaherpesvirus 3 [2] = assay: Antiviral activity was tested against TK+ Varicella-Zoster virus OKA which reduces virus plaque formation by 50%; assay type: functional, organism-based
# Human alphaherpesvirus 3 [3] = assay: Antiviral activity was tested against TK- Varicella-Zoster virus 07/1 which reduces virus plaque formation by 50%; assay type: functional, organism-based
# HEL [4] = assay: Minimum cytotoxic concentration against HEL cell morphology.; assay type: functional; details: Homo sapiens
# Human alphaherpesvirus 3 [5] = assay: Antiviral activity was tested against TK- Varicella-Zoster virus YS/R which reduces virus plaque formation by 50%; assay type: functional, organism-based
# Human alphaherpesvirus 3 [6] = assay: Antiviral activity was tested against TK+ Varicella-Zoster virus YS which reduces virus plaque formation by 50%; assay type: functional, organism-based
# Human betaherpesvirus 5 [7] = assay: Antiviral activity was tested against human cytomegalovirus AD-169 which reduces virus plaque formation by 50%; assay type: functional, organism-based
# Human betaherpesvirus 5 [8] = assay: Antiviral activity was tested against human cytomegalovirus Davis which reduces virus plaque formation by 50%; assay type: functional, organism-based
Compound,CC50 (HEL [1]) [µg/mL],IC50 (Human alphaherpesvirus 3 [2]) [µg/mL],IC50 (Human alphaherpesvirus 3 [3]) [µg/mL],MCC (HEL [4]) [µg/mL],IC50 (Human alphaherpesvirus 3 [5]) [µg/mL],IC50 (Human alphaherpesvirus 3 [6]) [µg/mL],IC50 (Human betaherpesvirus 5 [7]) [µg/mL],IC50 (Human betaherpesvirus 5 [8]) [µg/mL]
Nc1nc2c(ncn2COCCO)c(=O)[nH]1 [ACYCLOVIR],> 200,0.35,6.5,> 50,3.1,0.38,–,–
O=c1[nH]c(=O)n([C@H]2C[C@H](O)[C@@H](CO)O2)cc1/C=C/Br [BRIVUDINE],> 200,0.002,6.8,> 50,6.4,0.003,–,–
Nc1ccn(C[C@@H](CO)OCP(=O)(O)O)c(=O)n1.O.O [CIDOFOVIR],> 50,–,–,> 50,–,–,0.1,0.3
Nc1nc2c(ncn2COC(CO)CO)c(=O)[nH]1 [GANCICLOVIR],> 50,–,–,> 50,–,–,0.3,0.4
